The record followed here is patent publication EP0912751B1, “PROCESS FOR PREPARATION OF D-PROLINE D[…] MEANS OF MICRO-ORGANISMS” (LONZA AG, priority 1996, dated 1998).

This assay deals with Amidinohydrolase. In words: Enzyme characterisation (kinetics and inhibition) with whole cells. Type of assay: biochemical, Pseudomonas aeruginosa (DSM 10581). The procedure:
Die Enzymcharakterisierung wurde mit ganzen Zellen von Pseudomonas aeruginosa (DSM 10581) durchgeführt. Dabei betrug die optische Dichte der Zellsuspension OD600 = 17. Der Einfluss der Temperatur wurde in 100 mM Phosphatpuffer (pH 7 - 8) bei einer Substratkonzentration von 25 mM L-α-Chlor-δ-guanidinvaleriansäure bestimmt. Dabei zeigte sich, dass bei 37 °C eine um 40% höhere Aktivität als bei 30 °C erhalten wurde. Der Einfluss des pH-Wertes wurde in gleichem Puffer, bei gleicher Substratkonzentration und bei einer Temperatur von 37 °C ermittelt. Gemessen wurde die Aktivität bei pH 7; pH 7,5; pH 8,0, pH 8,5. Dabei wurde festgestellt, dass das pH-Optimum bei pH 8,5 lag. Durch Einsatz von verschiedenen Konzentrationen an L-α-Chlor-δ-guanidinvaleriansäure wurde der KM-Wert und Vmax bei einer Temperatur von 37 °C, in 100 mM Phosphatpuffer (pH 8,5), bestimmt. Der KM-Wert betrug 85,2 mmol / l und Vmax 0,38 mmol / l / min (Fig. 3).
Durch Zugabe von verschiedenen Konzentrationen an L-α-Chlor-δ-aminovaleriansäure (hergestellt aus Ornithin analog zu Beispiel 6) konnte eine Hemmung nachgewiesen werden.

On to `NCCC[C@H](Cl)C(=O)O` [L-α-Chlor-δ-aminovaleriansäure], for which, where the note is “inhibitor at a concentration of 50 mM (Fig. 4)”, the Hemmung entry is “vollständige Hemmung”.
Turning to `N=C(N)NCCC[C@H](Cl)C(=O)O` [L-α-Chlor-δ-guanidinvaleriansäure], the “Hemmung der Amidinohydrolase” value (listed as a property of the enzyme, no concentration given) is given as “gehemmt”. The Vmax (substrate of the enzyme, 37 °C, 100 mM Phosphatpuffer (pH 8,5), whole cells, OD600 = 17) is on record as 0,38 mmol / l / min. The Michaelis-Menten constant (Km) (as a rule, the substrate concentration at which the rate is half of its maximum) (substrate of the enzyme, 37 °C, 100 mM Phosphatpuffer (pH 8,5), whole cells, OD600 = 17, read-out: KM-Wert) was 85.2 mM.
